Experimental data reported in ChEMBL document CHEMBL4043259, “From UTP to AR-C118925, the discovery of a potent non nucleotide antagonist of the P2Y2 receptor” (Bioorg Med Chem Lett, 2017).

Assays:
P2Y purinoceptor 2 = P2Y purinoceptor 2 (Homo sapiens, UniProt P41231); assay: Antagonist activity at human P2Y2R expressed in human Jurkat cells assessed as inhibition of UTP-activated intracellular calcium mobilization by fluo-3AM dye based fluorescence assay; assay type: functional, cell-based; settings: read-out: pA2 (converted)
[1] = Volume of distribution at steady state in rat administered via iv; assay type: ADME; settings: in vivo, read-out: Vdss
[2] = Clearance in rat administered via iv; assay type: ADME; settings: in vivo
[3] = Bioavailability in rat; assay type: ADME, organism-based; settings: in vivo
[4] = Half life in rat administered via iv; assay type: ADME; settings: in vivo

Sequence of P2Y purinoceptor 2 (P41231 whole entry): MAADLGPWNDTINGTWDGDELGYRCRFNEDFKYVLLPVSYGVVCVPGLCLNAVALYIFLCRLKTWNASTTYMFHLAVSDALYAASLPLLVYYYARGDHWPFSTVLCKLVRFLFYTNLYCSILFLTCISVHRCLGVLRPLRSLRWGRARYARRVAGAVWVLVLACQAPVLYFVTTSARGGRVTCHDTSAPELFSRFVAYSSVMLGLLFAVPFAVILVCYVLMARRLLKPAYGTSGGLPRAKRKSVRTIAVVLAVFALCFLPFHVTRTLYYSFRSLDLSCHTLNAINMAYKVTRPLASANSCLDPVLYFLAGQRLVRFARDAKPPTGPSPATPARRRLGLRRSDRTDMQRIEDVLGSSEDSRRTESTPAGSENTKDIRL

Kb (P2Y purinoceptor 2) [nM]	SMILES	further results
2510	O=C(O)c1cc(Cn2cc(C3c4ccccc4C=Cc4ccccc43)c(=S)[nH]c2=O)cs1	–
2510	O=C(O)COc1cccc(Cn2cc(C3c4ccccc4C=Cc4ccccc43)c(=S)[nH]c2=O)c1	–
3980	O=C(O)c1cccc(Cn2cc(C3c4ccccc4C=Cc4ccccc43)c(=S)[nH]c2=O)c1	–
2000	O=C(O)c1csc(Cn2cc(C3c4ccccc4C=Cc4ccccc43)c(=S)[nH]c2=O)n1	–
3980	O=C(O)c1cccc(Cn2cc(C3c4ccccc4C=Cc4ccccc43)c(=S)[nH]c2=O)n1	–
1260	O=C(O)c1ccc(Cn2cc(C3c4ccccc4C=Cc4ccccc43)c(=S)[nH]c2=O)o1	–
6310	O=C(O)c1cnc(Cn2cc(C3c4ccccc4C=Cc4ccccc43)c(=S)[nH]c2=O)s1	–
1580	O=C(O)c1coc(Cn2cc(C3c4ccccc4C=Cc4ccccc43)c(=S)[nH]c2=O)n1	–
2000	O=C(O)Cc1cccc(Cn2cc(C3c4ccccc4C=Cc4ccccc43)c(=S)[nH]c2=O)c1	–
100	Cc1ccc2c(c1)C=Cc1cc(C)ccc1C2c1cn(Cc2ccc(C(=O)O)o2)c(=O)[nH]c1=S	–
20000	O=c1[nH]c(=S)c(C2c3ccccc3C=Cc3ccccc32)cn1[C@@H]1O[C@H](CO)[C@@H](O)[C@H]1O	–
200	O=C(O)c1ccc(Cn2cc(C3c4ccc(Cl)cc4C=Cc4cc(Cl)ccc43)c(=S)[nH]c2=O)o1	–
39800	O=C(O)c1csc(Cn2cc(C3c4ccccc4C=Cc4ccccc43)c(=O)[nH]c2=O)n1	–

Second part, the molecule before the results:

SMILES	Kb (P2Y purinoceptor 2) [nM]	further results
O=c1[nH]c(=S)c(C(c2ccccc2)c2ccccc2)cn1[C@@H]1O[C@H](COP(=O)(O)OP(=O)(O)C(Cl)(Cl)P(=O)(O)O)[C@@H](O)[C@H]1O	1000	–
COc1ccc(C(c2ccc(OC)cc2)c2cn([C@@H]3O[C@H](COP(=O)(O)OP(=O)(O)C(Cl)(Cl)P(=O)(O)O)[C@@H](O)[C@H]3O)c(=O)[nH]c2=S)cc1	79.4	–
O=c1[nH]c(=S)c(C2c3ccccc3C=Cc3ccccc32)cn1[C@@H]1O[C@H](COP(=O)(O)OP(=O)(O)C(Cl)(Cl)P(=O)(O)O)[C@@H](O)[C@H]1O	3.16	–
Cc1ccc2c(c1)C=Cc1cc(C)ccc1C2c1cn(Cc2nc(C(=O)O)cs2)c(=O)[nH]c1=S	251	–
Cc1ccc2c(c1)C=Cc1cc(C)ccc1C2c1cn(Cc2nc(C(=O)N[C@@H](CC(=O)O)C(=O)O)cs2)c(=O)[nH]c1=S	39.8	–
O=c1[nH]c(=S)c(C2c3ccccc3Oc3ccccc32)cn1[C@@H]1O[C@H](COP(=O)(O)OP(=O)(O)C(Cl)(Cl)P(=O)(O)O)[C@@H](O)[C@H]1O	50.1	–
Cc1ccc(C(c2ccc(C)cc2)c2cn([C@@H]3O[C@H](COP(=O)(O)OP(=O)(O)C(Cl)(Cl)P(=O)(O)O)[C@@H](O)[C@H]3O)c(=O)[nH]c2=S)cc1	15.8	–
O=c1[nH]c(=S)c(C(c2ccc(Cl)c(Cl)c2)c2ccc(Cl)c(Cl)c2)cn1[C@@H]1O[C@H](COP(=O)(O)OP(=O)(O)C(Cl)(Cl)P(=O)(O)O)[C@@H](O)[C@H]1O	20	–
O=c1[nH]c(=S)c(C(c2ccc(Cl)cc2)c2ccc(Cl)cc2)cn1[C@@H]1O[C@H](COP(=O)(O)OP(=O)(O)C(Cl)(Cl)P(=O)(O)O)[C@@H](O)[C@H]1O	12.6	–
Cc1ccc2c(c1)C=Cc1cc(C)ccc1C2c1cn(Cc2ccc(C(=O)Nc3nnn[nH]3)o2)c(=O)[nH]c1=S	–	Vd [1]: 4.34 L/kg; clearance [2]: 75 mL/min/kg; bioavailability [3]: 0%; half-life [4]: 2.12 h
Cc1ccc2c(c1)C=Cc1cc(C)ccc1C2c1cn(Cc2ccc(C(=O)N[C@@H](CC(=O)O)C(=O)O)o2)c(=O)[nH]c1=S	25.1	–
Cc1ccc2c(c1)C=Cc1cc(C)ccc1C2c1cn(Cc2ccc(C(=O)Nc3nc(CC(=O)O)cs3)o2)c(=O)[nH]c1=S	31.6	–
O=c1[nH]c(=S)c(C2c3ccccc3-c3ccccc32)cn1[C@@H]1O[C@H](COP(=O)(O)OP(=O)(O)C(Cl)(Cl)P(=O)(O)O)[C@@H](O)[C@H]1O	63.1	–
O=c1[nH]c(=S)c(C2c3ccccc3CCc3ccccc32)cn1[C@@H]1O[C@H](COP(=O)(O)OP(=O)(O)C(Cl)(Cl)P(=O)(O)O)[C@@H](O)[C@H]1O	10	–
Cc1ccc2c(c1)C=Cc1cc(C)ccc1C2c1cn(Cc2ccc(C(=O)Nc3nc(CC(=O)N[C@@H](CC(=O)O)C(=O)O)cs3)o2)c(=O)[nH]c1=S	63.1	–
